Laboratory results taken from US20170165374A1, “COMPOSITIONS AND METHODS FOR TREATING BACTERIAL INFECTIONS” (Insmed, Inc., priority 2015, published 2017).
Structures can show the parent of a compound that is named as a salt.

Legend:
Format in all cases: cell-based
[1] = system: M. abscessus type strain 19977; experiment: Intracellular CFU in M. abscessus infected THP-1 cells (THP-1 NTM model), strain 19977
Description: (§1) THP-1 cells were seeded in PMA and cultured for 48 hours, exposed to M. abscessus (type strain 19977 or clinical isolate Stanford A or NIH26) at multiplicity of infection (MOI) of approx. 2 for 1 hour followed by incubation with […] amikacin sulfate for 23 hours to reduce the extracellular NTM population. Liposomal amikacin formulations were added at 16, 32, 64, and 128 μg/mL of active concentration and incubated for 24 hours at 37° C. At the end of four 24 hour treatment cycles, cells were washed, lysed, serially diluted, plated, and incubated at 37° C. for 4 days to determine final intracellular CFU counts. Formulations were loaded with streptomycin and tested against the M. abscessus strains 19977 and Stanford A. Results are shown in Table 8.

[2] = system: M. abscessus clinical isolate Stanford A; experiment: Intracellular CFU in M. abscessus infected THP-1 cells (THP-1 NTM model), Stanford A
Description: as §1

[3] = system: M. abscessus clinical isolate NIH26; experiment: Intracellular CFU in M. abscessus infected THP-1 cells (THP-1 NTM model), NIH26; conditions: NIH 26, 128 μg/mL amikacin
Description: as §1, with “counts.” for “counts. Formulations were loaded with streptomycin and tested against the M. abscessus strains 19977 and Stanford A. Results are shown in Table 8.”

[4] = 128 μg/mL amikacin, vs pretreatment
[5] = 128 μg/mL streptomycin sulfate, vs pretreatment

Row | Compound | In vitro killing (CFU remaining after 96 h treatment with 128 μg/mL ami-in THP-1 NTM model) ([1]; 128 μg/mL amikacin) | In vitro killing (additional % CFU killed compared to pretreatment after 96 h treatment with 128 μg/mL ami in THP-1 NTM model) [1, 4] | In vitro killing (CFU remaining after 96 h treatment with 128 μg/mL ami-in THP-1 NTM model) ([2]; 128 μg/mL amikacin) | In vitro killing (additional % CFU killed compared to pretreatment after 96 h treatment with 128 μg/mL ami in THP-1 NTM model) [2, 4] | In vitro killing (CFU remaining after 96 h treatment with 128 μg/mL ami-in THP-1 NTM model) [3] | In vitro killing (additional % CFU killed compared to pretreatment after 96 h treatment with 128 μg/mL ami in THP-1 NTM model) ([3]; vs pretreatment) | In vitro killing (CFU remaining after 96 h treatment with 128 μg/mL streptomycin sulfate in THP-1 NTM model) ([1]; 128 μg/mL streptomycin sulfate) | In vitro killing (addtl. % CFU killed compared to pretreatment after 96 h treatment with 128 μg/mL streptomycin sulfate in THP-1 NTM model) [1, 5] | In vitro killing (CFU remaining after 96 h treatment with 128 μg/mL streptomycin sulfate in THP-1 NTM model) ([2]; 128 μg/mL streptomycin sulfate) | In vitro killing (addtl. % CFU killed compared to pretreatment after 96 h treatment with 128 μg/mL streptomycin sulfate in THP-1 NTM model) [2, 5]
1 | NCC[C@H](O)C(=O)N[C@@H]1C[C@H](N)[C@@H](O[C@H]2O[C@H](CN)[C@@H](O)[C@H](O)[C@H]2O)[C@H](O)[C@H]1O[C@H]1O[C@H](CO)[C@@H](O)[C@H](N)[C@H]1O [free ami, amikacin] | 135000 CFU | 50.1% | 135000 CFU | 75% | 214667 CFU | 37.4% |  |  |  | 
2 | [H]/N=C(/N)N[C@H]1[C@H](O)[C@@H](O)[C@H](O[C@@H]2O[C@@H](C)[C@](O)(C=O)[C@H]2O[C@@H]2O[C@@H](CO)[C@H](O)[C@@H](O)[C@@H]2NC)[C@@H](N/C(N)=N\[H])[C@@H]1O [free streptomycin sulfate, streptomycin sulfate] |  |  |  |  |  |  | 408000 CFU | 35.8% | 424000 CFU | 27.4%
